Nine compounds from US9688671B2, “Metalloenzyme inhibitor compounds” (Viamet Pharmaceuticals, Inc., priority 2013, dated 2017) can be followed below.

For one assay, the system named is C. albicans. Description: Minimum Inhibitory Concentration (MIC), C. albicans growth inhibition (CLSI M27-A2). The class given is cell-based. The settings on record: Candida albicans; about 50% growth reduction; approximately 48 h at 35±1° C.; RPMI+MOPS. The method, then: Compounds were assessed for their ability to inhibit the growth of common strains of fungus, C. albicans using a standardized procedure (CLSI M27-A2). Stock solutions of the test compounds and standards were prepared in DMSO at 1600 μg/mL (C. albicans). Eleven, serial, one-half dilutions of compounds were prepared in 96-well plates in RPMI+MOPS. The assay concentration ranges were 1-0.001 μg/mL (C. albicans). Cell suspensions of C. albicans were prepared and added to each well at concentrations of approximately 3.7×10^3 colony-forming-units per milliliter (cfu/mL). All testing was in duplicate. The inoculated plates were incubated for approximately 48 h at 35±1° C. At the completion of incubation the wells of each plate were evaluated visually for the presence of fungal growth. […] For voriconazole the MIC was the concentration which reduced C. albicans growth by 50% (per CLSI, M27-A2). For QC purposes C. krusei isolate ATCC 6258 (4.0×10^3 cfu/mL) was included in the VOR assay.

Another assay relates to A. fumigatus. Briefly: A. fumigatus MIC (CLSI M38-A2). The settings on record: Aspergillus fumigatus, read-out: Aspergillus MIC (Aspergillus fumigatus MIC50).
For a further assay, the system named is Coccidioides posadasii. Briefly: microbe, parasite or virus in culture. The class given is cell-based. The note with it: 48 h.

Values after ≈ are worked out from the molar mass of the structure shown.

With `N#Cc1ccc(CC(=O)c2ccc(C#Cc3ccc(C(F)(F)C(O)(Cn4cnnn4)c4ccc(F)cc4F)nc3)cc2)cc1` (racemic) [Example 1, 4-(2-(4-((6-(2-(2,4-difluorophenyl)-1,1-difluoro-2-hydroxy-3-(1H-tetrazol-1-yl)propyl)pyridin-3-yl)ethynyl)phenyl)-2-oxoethyl)benzonitrile], the MIC50 in the assay on C. albicans was 0.004 µg/mL (≈ 0.00671 µM); with A. fumigatus, 0.5 µg/mL (≈ 0.838 µM).

With `N#Cc1ccc(NCc2ccc(C#Cc3ccc(C(F)(F)C(O)(Cn4cnnn4)c4ccc(F)cc4F)nc3)cc2)cc1` (racemic) [Example 2, 4-(4-((6-(2-(2,4-difluorophenyl)-1,1-difluoro-2-hydroxy-3-(1H-tetrazol-1-yl)propyl)pyridin-3-yl)ethynyl)benzylamino)benzonitrile], the MIC50 with C. albicans came to 0.016 µg/mL (≈ 0.0274 µM); with A. fumigatus it was 1 µg/mL (≈ 1.71 µM).

On to `OC(Cn1cnnn1)(c1ccc(F)cc1F)C(F)(F)c1ccc(C#Cc2ccc(OCc3ccc(C(F)(F)F)s3)cc2)cn1` (racemic) [Example 5, 2-(2,4-difluorophenyl)-1,1-difluoro-3-(1H-tetrazol-1-yl)-1-(5-((4-((5-(trifluoromethyl)thiophen-2-yl)methoxy)phenyl)ethynyl)pyridin-2-yl)propan-2-ol], for which, in the assay with Coccidioides posadasii, the MIC50 is 0.12 µg/mL (≈ 0.189 µM).

As for `OC(Cn1cnnn1)(c1ccc(F)cc1F)C(F)(F)c1ccc(C#Cc2ccc(OCc3ccc(F)s3)cc2)cn1` (racemic) [Example 6, 2-(2,4-difluorophenyl)-1,1-difluoro-1-(5-((4-((5-fluorothiophen-2-yl)methoxy)phenyl)ethynyl)pyridin-2-yl)-3-(1H-tetrazol-1-yl)propan-2-ol], the MIC50 in the assay with C. albicans came out at 0.008 µg/mL (≈ 0.0137 µM); with A. fumigatus it was 0.5 µg/mL (≈ 0.857 µM).

`OC(Cn1cnnn1)(c1ccc(F)cc1F)C(F)(F)c1ccc(C#Cc2ccc(CNc3ccc(Cl)cc3)cc2)cn1` (racemic) [Example 7, 1-(5-((4-((4-chlorophenylamino)methyl)phenyl)ethynyl)pyridin-2-yl)-2-(2,4-difluorophenyl)-1,1-difluoro-3-(1H-tetrazol-1-yl)propan-2-ol] displayed an MIC50 in the assay on Coccidioides posadasii of 0.12 µg/mL (≈ 0.202 µM).

With `OC(Cn1cnnn1)(c1ccc(F)cc1F)C(F)(F)c1ccc(C#Cc2ccc(CNc3ccc(F)cc3)cc2)cn1` (racemic) [Example 8, 2-(2,4-difluorophenyl)-1,1-difluoro-1-(5-((4-((4-fluorophenylamino)methyl)phenyl)ethynyl)pyridin-2-yl)-3-(1H-tetrazol-1-yl)propan-2-ol], the MIC50 in the assay on C. albicans amounted to 0.004 µg/mL (≈ 0.00694 µM); with A. fumigatus it was 0.5 µg/mL (≈ 0.867 µM).

In the case of `CN(C)Cc1ccc(COc2ccc(C#Cc3ccc(C(F)(F)C(O)(Cn4cnnn4)c4ccc(F)cc4F)nc3)cc2)cc1` (racemic) [Example 11, 2-(2,4-difluorophenyl)-1-(5-((4-(4-((dimethylamino)methyl)benzyloxy)phenyl)ethynyl)pyridin-2-yl)-1,1-difluoro-3-(1H-tetrazol-1-yl)propan-2-ol], the MIC50 in the assay on C. albicans came to 0.016 µg/mL (≈ 0.0259 µM); in the assay on A. fumigatus it was 0.5 µg/mL (≈ 0.811 µM).

Turning to `OC(Cn1cnnn1)(c1ccc(F)cc1F)C(F)(F)c1ccc(C#Cc2ccc(OCc3ccc(Cn4cccn4)cc3)cc2)cn1` (racemic) [Example 13], the values for the MIC50 against C. albicans and in the assay with A. fumigatus were 0.016 µg/mL (≈ 0.025 µM) and 0.25 µg/mL (≈ 0.391 µM), respectively.

On to `C[C@@H](c1ncncc1F)[C@](O)(Cn1cncn1)c1ccc(F)cc1F` [Voriconazole, voriconazole, reference compound], for which the values for the MIC50 in the assay with C. albicans and in the assay with A. fumigatus were 0.016 µg/mL (≈ 0.0458 µM) and 0.25 µg/mL (≈ 0.716 µM), respectively.
